Measured values published in US8481538B2, “Heterocyclic inhibitors of c-Met and uses thereof” (Vertex Pharmaceuticals Incorporated, priority 2006, dated 2013).

Each compound was assayed against c-Met (Homo sapiens, UniProt P08581) (assay: Ki determination for the inhibition of c-Met (standard radiometric kinase assay)). Conditions: radiometric 33P-ATP assay, 1.0 nM c-Met, 35 μM ATP, 0.5 mg/mL polyE4Y, competitive tight-binding fit.
Sequence of c-Met (P08581 25-1390): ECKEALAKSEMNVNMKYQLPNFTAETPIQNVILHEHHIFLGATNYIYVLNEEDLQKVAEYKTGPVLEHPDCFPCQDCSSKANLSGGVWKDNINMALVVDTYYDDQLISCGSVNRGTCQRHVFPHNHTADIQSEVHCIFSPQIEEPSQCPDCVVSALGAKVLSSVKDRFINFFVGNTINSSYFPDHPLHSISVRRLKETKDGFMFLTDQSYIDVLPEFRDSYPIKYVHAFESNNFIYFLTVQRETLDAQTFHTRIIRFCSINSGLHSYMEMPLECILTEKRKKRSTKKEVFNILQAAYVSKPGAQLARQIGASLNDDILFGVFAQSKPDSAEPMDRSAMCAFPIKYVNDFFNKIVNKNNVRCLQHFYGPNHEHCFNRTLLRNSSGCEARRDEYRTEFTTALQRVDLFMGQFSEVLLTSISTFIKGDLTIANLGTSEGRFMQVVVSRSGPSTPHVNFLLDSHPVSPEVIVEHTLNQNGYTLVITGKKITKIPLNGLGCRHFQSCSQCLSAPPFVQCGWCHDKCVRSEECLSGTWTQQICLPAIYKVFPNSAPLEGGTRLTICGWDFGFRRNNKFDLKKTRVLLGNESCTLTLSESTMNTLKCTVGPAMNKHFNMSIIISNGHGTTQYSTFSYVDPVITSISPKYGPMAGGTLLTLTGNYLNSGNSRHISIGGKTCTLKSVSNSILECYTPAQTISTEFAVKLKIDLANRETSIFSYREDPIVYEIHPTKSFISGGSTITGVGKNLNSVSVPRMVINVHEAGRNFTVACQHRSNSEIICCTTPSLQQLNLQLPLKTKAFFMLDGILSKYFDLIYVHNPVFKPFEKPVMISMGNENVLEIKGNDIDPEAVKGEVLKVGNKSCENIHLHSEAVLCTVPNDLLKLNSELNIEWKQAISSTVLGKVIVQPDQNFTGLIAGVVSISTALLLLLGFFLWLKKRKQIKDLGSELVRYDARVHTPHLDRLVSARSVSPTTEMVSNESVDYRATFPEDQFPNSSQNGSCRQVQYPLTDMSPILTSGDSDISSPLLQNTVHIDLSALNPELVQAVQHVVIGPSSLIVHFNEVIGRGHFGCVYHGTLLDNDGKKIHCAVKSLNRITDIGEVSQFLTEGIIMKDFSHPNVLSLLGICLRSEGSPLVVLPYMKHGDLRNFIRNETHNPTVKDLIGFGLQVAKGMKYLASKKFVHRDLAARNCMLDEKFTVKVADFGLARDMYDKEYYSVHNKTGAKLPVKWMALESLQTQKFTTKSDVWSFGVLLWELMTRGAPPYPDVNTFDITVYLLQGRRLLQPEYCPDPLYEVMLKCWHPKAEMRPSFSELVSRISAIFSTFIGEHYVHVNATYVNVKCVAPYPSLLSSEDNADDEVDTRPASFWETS
Assay type: biochemical
Experimental: Ki Determination for the Inhibition of c-Met
Compounds of the invention were screened for their ability to inhibit c-Met kinase activity using a standard radiometric assay. Briefly, in this kinase assay the transfer of the terminal ^33P-phosphate in ^33P-ATP to substrate polyE4Y is interrogated. The assay was carried out in 96-well plates to a final volume of 100 μL per well containing 1.0 nM c-Met, 100 mM HEPES (pH 7.5), 10 mM MgCl2, 25 mM NaCl, 0.01% BSA, 1 mM DTT, 0.5 mg/mL polyE4Y, and 35 μM ATP. Accordingly, compounds of the invention were dissolved in DMSO to make 10 mM initial stock solutions. Serial dilutions in DMSO were then made to obtain the final solutions for the assay. A 1.5 μL aliquot of DMSO or inhibitor in DMSO was added to each well. The reaction was initiated by the addition of ^33P-ATP and polyE4Y (obtained from Sigma). After 20 min, the reaction was quenched with 50 μL of 30% trichloroacetic acid (TCA) containing 4 mM ATP. The reaction mixture was transferred to the 0.66 mm GF filter plates (Corning) and washed three times with 5% TCA. Following the addition of 50 μL of Ultimate Gold™ high efficiency scintillant (Packard Bioscience), the samples were counted in a Packard TopCount NXT Microplate Scintillation and Luminescence Counter (Packard BioScience). The Ki values were calculated using Microsoft Excel Solver macros to fit the data to the kinetic model for competitive tight-binding inhibition.
In the case of `C[C@@H](NC(=O)c1nc(-c2cccc(C3CCNCC3)c2)cnc1N)c1nnc2ccc(Nc3cccc(Cl)c3)nn12` [Compound 77], the Ki is reported as ≤ 250 nM. `CN(Cc1nnc2ccc(Nc3cccc(Cl)c3)nn12)C(=O)c1cccnc1` [Compound 12] was tested, and the Ki was > 2500 nM. `Nc1ncc(-c2ccccc2)nc1C(=O)N[C@H](CO)c1nnc2ccc(Nc3cccc(Cl)c3)nn12` [Compound 30] was tested, and the Ki was ≤ 250 nM. In the case of `C[C@@H](NC(=O)c1nc(-c2ccc(CN)cc2)cnc1N)c1nnc2ccc(Nc3cccc(Cl)c3)nn12` [Compound 65], the Ki is reported as ≤ 250 nM. `C[C@@H](NC(=O)c1nc(-c2ccc(CN3CC[C@H](O)C3)cc2)cnc1N)c1nnc2ccc(Nc3cccc(Cl)c3)nn12` [Compound 67] was tested, and the Ki was ≤ 250 nM. In the case of `Clc1cccc(Nc2ccc3nnc(COCc4cccnc4)n3n2)c1` [Compound 2, 3-(((pyridin-3-yl)methoxy)methyl)-N-(3-chlorophenyl)-[1,2,4]triazolo[4,3-b]pyridazin-6-amine], the Ki is reported as ≤ 250 nM. For `C[C@@H](NC(=O)Nc1cccnc1)c1nnc2ccc(Nc3cccc(Cl)c3)nn12` [Compound 15, 1-((R)-1-(6-(3-chlorophenylamino)-[1,2,4]triazolo[4,3-b]pyridazin-3-yl)ethyl)-3-(pyridin-3-yl)urea], the Ki was 250 to 2500 nM. With `C[C@@H](NC(=O)c1nc(-c2cccnc2)cnc1N)c1nnc2ccc(Nc3cccc(Cl)c3)nn12` [Compound 41] the Ki was ≤ 250 nM. `CNCc1ccc(-c2cnc(N)c(C(=O)N[C@H](C)c3nnc4ccc(Nc5cccc(Cl)c5)nn34)n2)cc1` [Compound 78] was tested, and the Ki was ≤ 250 nM. Compound `C[C@@H](NC(=O)c1cnc2ccccc2n1)c1nnc2ccc(Nc3cccc(Cl)c3)nn12` [Compound 16] has a Ki of 250 to 2500 nM. For `C[C@@H](NC(=O)c1nc(C#Cc2cccnc2)cnc1N)c1nnc2ccc(Nc3cccc(Cl)c3)nn12` [Compound 56], the Ki was 250 to 2500 nM. With `CC(=O)Nc1cccc(-c2cnc(N)c(C(=O)N[C@H](C)c3nnc4ccc(Nc5cccc(Cl)c5)nn34)n2)c1` [Compound 58] the Ki was ≤ 250 nM. With `CN(C(=O)Cc1nnc2ccc(Nc3cccc(Cl)c3)nn12)c1ccccn1` [Compound 7] the Ki was > 2500 nM. In the case of `C[C@@H](NC(=O)c1nc(-c2ccsc2)cnc1N)c1nnc2ccc(Nc3cccc(Cl)c3)nn12` [Compound 31], the Ki is reported as ≤ 250 nM. With `CCN(CC)CC#Cc1cnc(N)c(C(=O)N[C@H](C)c2nnc3ccc(Nc4cccc(Cl)c4)nn23)n1` [Compound 47] the Ki was ≤ 250 nM. With `C[C@@H](NC(=O)c1nc(-c2ccc(CN3CC[C@@H](O)C3)cc2)cnc1N)c1nnc2ccc(Nc3cccc(Cl)c3)nn12` [Compound 66] the Ki was ≤ 250 nM. Compound `C[C@@H](NC(=O)c1cc(-c2cnn(C)c2)cnc1N)c1nnc2sc(Nc3cccc(Cl)c3)nn12` [Compound 63] has a Ki of 250 to 2500 nM. In the case of `C[C@@H](NC(=O)c1nc(C(N)=O)cnc1N)c1nnc2ccc(Nc3cccc(Cl)c3)nn12` [Compound 39], the Ki is reported as ≤ 250 nM. `O=C(Cc1nnc2ccc(Nc3cccc(Cl)c3)nn12)NCc1cccnc1` [Compound 6] was tested, and the Ki was > 2500 nM. For `O=C(Cc1nnc2ccc(Nc3cccc(Cl)c3)nn12)Nc1cnccn1` [Compound 5], the Ki was > 2500 nM. Compound `CCCC#Cc1cnc(N)c(C(=O)N[C@H](C)c2nnc3ccc(Nc4cccc(Cl)c4)nn23)n1` [Compound 50] has a Ki of 250 to 2500 nM. `C[C@@H](NC(=O)c1nc(-c2ccc(CN(C)C)cc2)cnc1N)c1nnc2ccc(Nc3cccc(Cl)c3)nn12` [Compound 76] was tested, and the Ki was ≤ 250 nM. In the case of `C[C@@H](NC(=O)c1nc(-c2ccc(CN3CCCC3)cc2)cnc1N)c1nnc2ccc(-c3ccccc3)nn12` [Compound 80], the Ki is reported as ≤ 250 nM. In the case of `C[C@@H](NC(=O)c1nc(C#N)cnc1N)c1nnc2ccc(Nc3cccc(Cl)c3)nn12` [Compound 38], the Ki is reported as ≤ 250 nM. `CC(=O)Nc1ccc(-c2cnc(N)c(C(=O)N[C@H](C)c3nnc4ccc(Nc5cccc(Cl)c5)nn34)n2)cc1` [Compound 22] was tested, and the Ki was ≤ 250 nM. In the case of `C[C@@H](NC(=O)c1nc(C#Cc2ccncc2)cnc1N)c1nnc2ccc(Nc3cccc(Cl)c3)nn12` [Compound 57], the Ki is reported as 250 to 2500 nM. For `C[C@@H](NC(=O)c1nccnc1N)c1nnc2ccc(Nc3cccc(Cl)c3)nn12` [Compound 14, N—((R)-1-(6-(3-chlorophenylamino)-[1,2,4]triazolo[4,3-b]pyridazin-3-yl)ethyl)-3-aminopyrazine-2-carboxamide], the Ki was ≤ 250 nM. `CCC(C)Nc1ccc2nnc([C@@H](C)NC(=O)c3nc(-c4ccccc4)cnc3N)n2n1` (stereo partly shown) [Compound 25] was tested, and the Ki was 250 to 2500 nM. In the case of `C[C@@H](NC(=O)c1nc(-c2cccc(N3CCNCC3)c2)cnc1N)c1nnc2ccc(Nc3cccc(Cl)c3)nn12` [Compound 69], the Ki is reported as ≤ 250 nM. Work on `C[C@H](NC(=O)c1nc(-c2ccccc2)cnc1N)c1nnc2ccc(Nc3cccc(Cl)c3)nn12` [Compound 28] yielded a Ki of 250 to 2500 nM. `C[C@@H](NC(=O)c1nc(Br)cnc1N)c1nnc2ccc(Nc3cccc(Cl)c3)nn12` [Compound 18] gave a Ki of 250 to 2500 nM. In the case of `Clc1cccc(Nc2ccc3nnc(CNCc4cccnc4)n3n2)c1` [Compound 4], the Ki is reported as > 2500 nM. `C[C@@H](NC(=O)c1nc(C2CCCC2)cnc1N)c1nnc2ccc(Nc3cccc(Cl)c3)nn12` [Compound 40] was tested, and the Ki was ≤ 250 nM. `C[C@@H](NC(=O)c1nc(C2=CCCC2)cnc1N)c1nnc2ccc(Nc3cccc(Cl)c3)nn12` [Compound 33] was tested, and the Ki was ≤ 250 nM. Work on `Cc1ccc2nnc([C@@H](C)NC(=O)c3nc(-c4ccc(CN5CCCC5)cc4)cnc3N)n2n1` [Compound 79] yielded a Ki of 250 to 2500 nM. With `Clc1cccc(Nc2ccc3nnc(CNc4n[nH]c5ncccc45)n3n2)c1` [Compound 20] the Ki was ≤ 250 nM. `C[C@@H](NC(=O)c1nc(-c2cnn(C3CCNCC3)c2)cnc1N)c1nnc2ccc(-c3ccccc3)nn12` [Compound 83] was tested, and the Ki was ≤ 250 nM. `C[C@@H](NC(=O)c1nc(-c2cccs2)cnc1N)c1nnc2ccc(Nc3cccc(Cl)c3)nn12` [Compound 29] was tested, and the Ki was ≤ 250 nM. `C[C@@H](NC(=O)c1nc(C#CC2CC2)cnc1N)c1nnc2ccc(Nc3cccc(Cl)c3)nn12` [Compound 61] showed a Ki of 250 to 2500 nM. With `C#Cc1cnc(N)c(C(=O)N[C@H](C)c2nnc3ccc(Nc4cccc(Cl)c4)nn23)n1` [Compound 36] the Ki was ≤ 250 nM. `C[C@@H](NC(=O)c1nc(-c2cnn(C)c2)cnc1N)c1nnc2ccc(-c3ccccc3)nn12` [Compound 82] showed a Ki of 250 to 2500 nM. With `CN(Cc1cccnc1)Cc1nnc2ccc(Nc3cccc(Cl)c3)nn12` [Compound 1] the Ki was ≤ 250 nM. `Cc1nn2c([C@@H](C)NC(=O)c3nc(-c4ccccc4)cnc3N)nnc2s1` [Compound 75] gave a Ki of 250 to 2500 nM. For `C=Cc1cnc(N)c(C(=O)N[C@H](C)c2nnc3ccc(Nc4cccc(Cl)c4)nn23)n1` [Compound 37], the Ki was ≤ 250 nM. In the case of `C[C@@H](NC(=O)c1nc(-c2ccccc2)cnc1N)c1nnc2sc(N)nn12` [Compound 74], the Ki is reported as 250 to 2500 nM. With `C[C@@H](NC(=O)c1nc(-c2ccncc2)cnc1N)c1nnc2ccc(Nc3cccc(Cl)c3)nn12` [Compound 42] the Ki was ≤ 250 nM. Compound `C[C@@H](NC(=O)c1nc(C#CCC2CCCC2)cnc1N)c1nnc2ccc(Nc3cccc(Cl)c3)nn12` [Compound 49] has a Ki of 250 to 2500 nM. `C[C@@H](NC(=O)c1nc(-c2cccs2)cnc1N)c1nnc2ccc(-c3ccccc3)nn12` [Compound 81] gave a Ki of 250 to 2500 nM. `Clc1cccc(Nc2ccc3nnc(CNCc4ccccn4)n3n2)c1` [Compound 3] was tested, and the Ki was > 2500 nM. In the case of `C[C@@H](NC(=O)c1nc(-c2ccc(C3(O)CCNCC3)cc2)cnc1N)c1nnc2ccc(Nc3cccc(Cl)c3)nn12` [Compound 68], the Ki is reported as ≤ 250 nM. `C[C@@H](NC(=O)c1cccnc1)c1nnc2ccc(Nc3cccc(Cl)c3)nn12` [Compound 10] was tested, and the Ki was > 2500 nM. For `C[C@@H](NC(=O)c1nc(C#CCO)cnc1N)c1nnc2ccc(Nc3cccc(Cl)c3)nn12` [Compound 43], the Ki was ≤ 250 nM. For `C[C@@H](NC(=O)c1nc(-c2ccc(CN3CCCC3)c(F)c2)cnc1N)c1nnc2ccc(Nc3cccc(Cl)c3)nn12` [Compound 70], the Ki was ≤ 250 nM. In the case of `C[C@@H](NC(=O)c1nc(-c2ccccc2)cnc1N)c1nnc2ccc(Cl)nn12` [Compound 64], the Ki is reported as 250 to 2500 nM. For `CCC(O)C#Cc1cnc(N)c(C(=O)N[C@H](C)c2nnc3ccc(Nc4cccc(Cl)c4)nn23)n1` (stereo partly shown) [Compound 46], the Ki was ≤ 250 nM. In the case of `C[C@@H](NC(=O)c1nc(-c2cnn(C)c2)cnc1N)c1nnc2ccc(Nc3cccc(Cl)c3)nn12` [Compound 27], the Ki is reported as ≤ 250 nM. With `C[C@@H](NC(=O)c1nc(-c2ccoc2)cnc1N)c1nnc2ccc(Nc3cccc(Cl)c3)nn12` [Compound 32] the Ki was ≤ 250 nM. Work on `C[C@@H](NC(=O)c1nc(C#Cc2ccccc2)cnc1N)c1nnc2ccc(Nc3cccc(Cl)c3)nn12` [Compound 48] yielded a Ki of 250 to 2500 nM. `C[C@@H](NC(=O)c1nc(-c2ccc(N3CCNCC3)cc2)cnc1N)c1nnc2ccc(Nc3cccc(Cl)c3)nn12` [Compound 72] was tested, and the Ki was ≤ 250 nM. Compound `CC[C@@H](NC(=O)c1nc(-c2ccccc2)cnc1N)c1nnc2ccc(Nc3cccc(Cl)c3)nn12` [Compound 34] has a Ki of 250 to 2500 nM. In the case of `Clc1cccc(Nc2ccc3nnc(COCc4cnccn4)n3n2)c1` [Compound 19], the Ki is reported as > 2500 nM. In the case of `C[C@@H](NC(=O)c1cc(-c2ccccc2)cnc1N)c1nnc2ccc(Nc3cccc(Cl)c3)nn12` [Compound 23], the Ki is reported as ≤ 250 nM. `C[C@@H](NC(=O)c1nc(-c2ccc(CN3CCCC3)cc2)cnc1N)c1nnc2ccc(Nc3cccc(Cl)c3)nn12` [Compound 55] was tested, and the Ki was ≤ 250 nM. With `C[C@@H](NC(=O)c1nc(-c2cnn(C3CCNCC3)c2)cnc1N)c1nnc2ccc(Nc3cccc(Cl)c3)nn12` [Compound 62] the Ki was ≤ 250 nM.
